From publication PMC5322802 (Biochemistry, 2016)
Where two headings read alike, the source gives them in different places.

Tests used:
FABP1 [1] = conditions: known Kd value, cited from earlier work
FABP1 [2] = target: T1, FABP1 (Mus musculus, UniProt P12710); assay: cis-parinaroyl-CoA displacement from FABP1; format: binding, murine; conditions: for fold stronger binding by FABP1 as compared to FABP3, FABP5, and FABP7: different displacement assays; for fold weaker binding to FABP1 than OEA: cis-parinaroyl-CoA displacement Kis; for Ki: displacement of FABP1-bound cis-parinaroyl-CoA (footnote a), 24°C, mean ± SEM, n=5, ND = no significant displacement
T1 sequence (P12710 1-127): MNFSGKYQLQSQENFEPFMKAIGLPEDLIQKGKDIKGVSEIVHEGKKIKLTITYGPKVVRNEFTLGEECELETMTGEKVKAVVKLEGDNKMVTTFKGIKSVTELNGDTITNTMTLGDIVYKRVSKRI

FABP1 [3] = target: T1, FABP1; assay: NBD-stearic acid displacement from FABP1; format: binding, murine; conditions: not shown
FABP1 [4] = target: T1, FABP1; assay: ANS displacement from FABP1; format: binding, murine
FABP1 [5] = target: T1, FABP1; assay: DAUDA displacement from FABP1; format: binding, murine; conditions: very high AEA concentration, e.g. 9 μM; not shown
ACBP = target: T2, ACBP (Mus musculus, UniProt P31786); assay: Direct binding to ACBP: intrinsic Tyr/Trp fluorescence; design: species or system murine; conditions: ACBP 500nM
T2 sequence (P31786 1-87): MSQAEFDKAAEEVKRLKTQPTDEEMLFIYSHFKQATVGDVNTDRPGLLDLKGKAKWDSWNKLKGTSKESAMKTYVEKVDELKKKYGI

FABP1 [6] = target: T1, FABP1; assay: Direct binding to FABP1: quenching of intrinsic Tyr fluorescence; design: species or system murine; conditions: FABP1 500nM, AEA 3μM
HSP70 = conditions: read-out: Kd of HSP70 binding AEA; cited from earlier work
[7] = in vivo; cited from earlier work
SCP2 [8] = target: T3, SCP2 (Homo sapiens, UniProt P22307); assay: NBD-stearic acid displacement from SCP2; format: binding; conditions: displacement of SCP2-bound NBD-stearic acid; SCP2 500nM, NBD-stearate 500nM
T3 sequence (P22307 21-143 isoform P22307-2 limits assumed): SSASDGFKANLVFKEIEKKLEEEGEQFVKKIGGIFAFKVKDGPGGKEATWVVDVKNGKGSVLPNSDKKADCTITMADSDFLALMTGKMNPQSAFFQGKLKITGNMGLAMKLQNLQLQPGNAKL

FABP4 = conditions: cited from earlier work
FABP1 [9] = target: T1, FABP1; assay: NBD-AEA displacement from FABP1; format: binding, murine; conditions: for displacement of / effect on FABP1-bound NBD-AEA (in words): FABP1 500nM, NBD-AEA 1μM
FABP1 [10] = target: T1, FABP1; assay: FABP1 binding of fluorescent ligands; design: species or system murine; conditions: read-out: Kd of FABP1 binding NBD-AEA; obtained herein (not shown)
SCP2 [11] = target: T3, SCP2; assay: Direct binding to SCP2: intrinsic Trp fluorescence
[12] = FABP1 500nM, cis-parinaroyl-CoA 500nM

CC/C=C/C=C\C=C/C=C/CCCCCCCC(=O)SCCNC(=O)CCNC(=O)[C@H](O)C(C)(C)COP(=O)(O)OP(=O)(O)OC[C@H]1O[C@@H](n2cnc3c(N)ncnc32)[C@H](O)[C@@H]1OP(=O)(O)O (relative stereo) [cis-parinaroyl-CoA]
Kd (FABP1 [1]; read-out: Kd1 of FABP1 binding cis-parinaroyl-CoA): 27 ± 4 nM | Kd (FABP1 [1]; read-out: Kd2 of FABP1 binding cis-parinaroyl-CoA): 66 ± 8 nM

CCCCC/C=C\C/C=C\C/C=C\C/C=C\CCCC(=O)OC(CO)CO [2-AG, 2-arachidonoylglycerol]
fold stronger binding by FABP1 as compared to SCP2 (FABP1 [2]): ≥ 3 fold | maximal displacement of FABP1-bound cis-parinaroyl-CoA (FABP1 [2]; [12]): about 50% | fold stronger binding by FABP1 as compared to FABP3, FABP5, and FABP7 (FABP1 [2]): 2–15 fold

CCCCC/C=C\C/C=C\C/C=C\C/C=C\CCCC(=O)NCCO [AEA, n-6 arachidonoylethanolamide]
maximal displacement of FABP1-bound cis-parinaroyl-CoA (FABP1 [2]; [12]): about 50% | displacement of FABP1-bound NBD-stearic acid (in words) (FABP1 [3]): did not displace | displacement of FABP1-bound ANS (in words) (FABP1 [4]): did not displace | displacement of FABP1-bound DAUDA (FABP1 [5]): 13% | quenching of ACBP aromatic amino acid (Tyr) fluorescence emission (in words) (ACBP): neither OEA nor AEA quenched | effect on FABP1 intrinsic Tyr fluorescence emission at 304 nm (in words) (FABP1 [6]): decreased | Kd (HSP70): 3700 ± 500 nM

CCCCC/C=C\C/C=C\C/C=C\C/C=C\CCCC(=O)Nc1ccc(O)cc1 [AM404]
maximal displacement of FABP1-bound cis-parinaroyl-CoA (FABP1 [2]; [12]): about 50%

CCCCC/C=C\C/C=C\C/C=C\C/C=C\CCCC(=O)O [ARA, arachidonic acid]
first-pass clearance by liver [7]: ~50%

CCc1c(-c2ccccc2)c(-c2ccccc2)nn1-c1ccccc1-c1cccc(OCC(=O)O)c1 [BMS309403]
fold stronger binding by FABP1 than FABP3 (FABP1 [2]; BMS309403): 10 fold | fold stronger binding by FABP1 than FABP5 (FABP1 [2]; BMS309403): 12–50 fold | maximal displacement of FABP1-bound cis-parinaroyl-CoA (in words) (FABP1 [2]; [12]): almost completely | Ki (SCP2 [8]): 5500 ± 500 nM | affinity of FABP4 for BMS309403 (FABP4): < 2 nM

C=C(C)[C@@H]1CCC(C)=C[C@H]1c1c(O)cc(CCCCC)cc1O [Cannabidiol, cannabidiol]
maximal displacement of FABP1-bound cis-parinaroyl-CoA (FABP1 [2]; [12]): about 50% | fold stronger binding by FABP1 as compared to FABP3, FABP5, and FABP7 (FABP1 [2]): 9–11 fold

CC/C=C\C/C=C\C/C=C\C/C=C\C/C=C\C/C=C\CCC(=O)NCCO [DHEA, n-3 docosahexaenoylethanolamide]
fold weaker binding to FABP1 than OEA (FABP1 [2]): 4–10 fold

CC/C=C\C/C=C\C/C=C\C/C=C\C/C=C\CCCC(=O)NCCO [EPEA, n-3 eicosapentaenoylethanolamide]
fold weaker binding to FABP1 than OEA (FABP1 [2]): 4–10 fold | Ki (FABP1 [2]): 390 ± 30 nM

CCCC(C)(C)c1ccc2c(c1)OC(C)(C)[C@@H]1CC=C(C)C[C@@H]21 [JWH-133]
Ki (FABP1 [2]): did not displace | Ki (FABP1 [9]; displacement of FABP1-bound NBD-AEA (footnote b), 24°C, mean ± SEM, n=5, ND = no significant displacement): did not displace

O=C(CCC/C=C\C/C=C\C/C=C\C/C=C\CCCCCNc1ccc([N+](=O)[O-])c2nonc12)NCCO [NBD-AEA]
Kd (FABP1 [10]): 700 ± 100 nM

CCCCCCCC/C=C\CCCCCCCC(=O)NCCO [OEA, oleoylethanolamide]
Kd (SCP2 [11]): 390 nM | effect on SCP2 Trp fluorescence emission (in words) (SCP2 [11]; SCP2 500nM, OEA 1.4 μM): significantly increased | quenching of ACBP aromatic amino acid (Tyr) fluorescence emission (in words) (ACBP): neither OEA nor AEA quenched

CC(=O)Nc1ccc(Nc2nc(-c3ccc(Cl)c(Cl)c3)cs2)cc1 [SCPI1]
Ki (SCP2 [8]): 680 ± 60 nM

CCCCCc1cc(O)c2c(c1)OC(C)(C)[C@@H]1CCC(C)=C[C@@H]21 [THC, Δ^9-tetrahydrocannabinol]
maximal displacement of FABP1-bound cis-parinaroyl-CoA (FABP1 [2]; [12]): about 50% | displacement of / effect on FABP1-bound NBD-AEA (in words) (FABP1 [9]): essentially all

CCCCC/C=C\C/C=C\C/C=C\C/C=C\CCCC(=O)Nc1ccc(O)cc1C [VDM11]
maximal displacement of FABP1-bound cis-parinaroyl-CoA (FABP1 [2]; [12]): about 50%

CCCCCCCC/C=C\CCCCCCCC(=O)SCCNC(=O)CCNC(=O)[C@H](O)C(C)(C)COP(=O)(O)OP(=O)(O)OC[C@H]1O[C@@H](n2cnc3c(N)ncnc32)[C@H](O)[C@@H]1OP(=O)(O)O [oleoyl-CoA]
quenching of ACBP aromatic amino acid (Tyr) fluorescence emission (in words) (ACBP): significantly quenched

SR-144528
displacement of / effect on FABP1-bound NBD-AEA (in words) (FABP1 [9]): increased the fluorescence
